Tests used:
platelet counts = test: Phase I pharmacodynamics, elevation in platelet counts; format: in vivo, human; details: for n (>1.5×), subjects with platelet increase / n (>2×), subjects with platelet increase / n (>3×), subjects with platelet increase / n (>4×), subjects with platelet increase: N=6
human TPO receptor = target: T1, human TPO receptor (Homo sapiens, UniProt P40238); test: relative luminescent units assay, murine cells expressing human TPO receptor and fos-promoter luciferase reporter; format: cell-based; details: FIG. 1; three batches of TPO Compound No. 1 vs one batch of prior art peptide compound
T1 construct: expressed in transfected cells
T1 sequence (P40238 26-635): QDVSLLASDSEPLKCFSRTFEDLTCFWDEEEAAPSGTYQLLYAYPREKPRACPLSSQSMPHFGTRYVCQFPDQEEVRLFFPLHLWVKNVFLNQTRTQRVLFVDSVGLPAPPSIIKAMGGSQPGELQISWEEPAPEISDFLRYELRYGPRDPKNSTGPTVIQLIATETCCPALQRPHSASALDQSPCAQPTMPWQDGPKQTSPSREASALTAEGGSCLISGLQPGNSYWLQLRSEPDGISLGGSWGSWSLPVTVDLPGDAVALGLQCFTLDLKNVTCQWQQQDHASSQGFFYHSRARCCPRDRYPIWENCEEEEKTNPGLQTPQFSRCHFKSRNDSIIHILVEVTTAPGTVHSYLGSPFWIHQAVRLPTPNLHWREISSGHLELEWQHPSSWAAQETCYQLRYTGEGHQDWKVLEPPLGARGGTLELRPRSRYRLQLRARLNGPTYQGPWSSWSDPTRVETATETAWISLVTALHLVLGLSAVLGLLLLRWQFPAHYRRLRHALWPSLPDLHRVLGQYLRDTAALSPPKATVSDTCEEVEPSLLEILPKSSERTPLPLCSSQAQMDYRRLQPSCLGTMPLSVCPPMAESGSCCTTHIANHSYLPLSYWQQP
Description: The assay employs murine cells engineered to stably express the human TPO receptor and a luciferase reporter construct driven by the fos promoter.

(H-IEGPTLRQ(2-Nal)LAAR(Sar))2K-NH2 [TPO Compound No. 1]
Pltmax, first value (mean peak platelet count) (platelet counts; 0.375 μg/kg single i.v.): 315 10^9/L
Pltmax, range in brackets (platelet counts; 0.375 μg/kg single i.v.): (214-482) 10^9/L
Pltmax, second value after the slash (footnote not given) (platelet counts; 0.375 μg/kg single i.v.): 309 10^9/L
Pltmax/Plt0, first value (mean) (platelet counts; 0.375 μg/kg single i.v.): 1.42/1.42
Pltmax/Plt0, range in brackets (platelet counts; 0.375 μg/kg single i.v.): (1.08-1.81)
Pltmax/Plt0, second value after the slash (footnote not given) (platelet counts; 0.375 μg/kg single i.v.): 1.42/1.42
n (>1.5×), subjects with platelet increase (platelet counts; 0.375 μg/kg single i.v.): 3
n (>2×), subjects with platelet increase (platelet counts; 0.375 μg/kg single i.v.): 0
n (>3×), subjects with platelet increase (platelet counts; 0.375 μg/kg single i.v.): 0
n (>4×), subjects with platelet increase (platelet counts; 0.375 μg/kg single i.v.): 0
Pltmax, first value (mean peak platelet count) (platelet counts; 0.75 μg/kg single i.v.): 347 10^9/L
Pltmax, range in brackets (platelet counts; 0.75 μg/kg single i.v.): (232-495) 10^9/L
Pltmax, second value after the slash (footnote not given) (platelet counts; 0.75 μg/kg single i.v.): 335 10^9/L
Pltmax/Plt0, first value (mean) (platelet counts; 0.75 μg/kg single i.v.): 1.63/1.63
Pltmax/Plt0, range in brackets (platelet counts; 0.75 μg/kg single i.v.): (1.15-2.12)
Pltmax/Plt0, second value after the slash (footnote not given) (platelet counts; 0.75 μg/kg single i.v.): 1.63/1.63
n (>1.5×), subjects with platelet increase (platelet counts; 0.75 μg/kg single i.v.): 3
n (>2×), subjects with platelet increase (platelet counts; 0.75 μg/kg single i.v.): 1
n (>3×), subjects with platelet increase (platelet counts; 0.75 μg/kg single i.v.): 0
n (>4×), subjects with platelet increase (platelet counts; 0.75 μg/kg single i.v.): 0
Pltmax, first value (mean peak platelet count) (platelet counts; 1.5 μg/kg single i.v.): 430 10^9/L
Pltmax, range in brackets (platelet counts; 1.5 μg/kg single i.v.): (238-597) 10^9/L
Pltmax, second value after the slash (footnote not given) (platelet counts; 1.5 μg/kg single i.v.): 458 10^9/L
Pltmax/Plt0, first value (mean) (platelet counts; 1.5 μg/kg single i.v.): 1.91
Pltmax/Plt0, range in brackets (platelet counts; 1.5 μg/kg single i.v.): (1.01-2.59)
Pltmax/Plt0, second value after the slash (footnote not given) (platelet counts; 1.5 μg/kg single i.v.): 2.13
n (>1.5×), subjects with platelet increase (platelet counts; 1.5 μg/kg single i.v.): 4
n (>2×), subjects with platelet increase (platelet counts; 1.5 μg/kg single i.v.): 3
n (>3×), subjects with platelet increase (platelet counts; 1.5 μg/kg single i.v.): 0
n (>4×), subjects with platelet increase (platelet counts; 1.5 μg/kg single i.v.): 0
Pltmax, first value (mean peak platelet count) (platelet counts; 2.25 μg/kg single i.v.): 454 10^9/L
Pltmax, range in brackets (platelet counts; 2.25 μg/kg single i.v.): (254-576) 10^9/L
Pltmax, second value after the slash (footnote not given) (platelet counts; 2.25 μg/kg single i.v.): 500 10^9/L
Pltmax/Plt0, first value (mean) (platelet counts; 2.25 μg/kg single i.v.): 2.15
Pltmax/Plt0, range in brackets (platelet counts; 2.25 μg/kg single i.v.): (1.28-2.98)
Pltmax/Plt0, second value after the slash (footnote not given) (platelet counts; 2.25 μg/kg single i.v.): 2.33
n (>1.5×), subjects with platelet increase (platelet counts; 2.25 μg/kg single i.v.): 4
n (>2×), subjects with platelet increase (platelet counts; 2.25 μg/kg single i.v.): 4
n (>3×), subjects with platelet increase (platelet counts; 2.25 μg/kg single i.v.): 0
n (>4×), subjects with platelet increase (platelet counts; 2.25 μg/kg single i.v.): 0
Pltmax, first value (mean peak platelet count) (platelet counts; 3.0 μg/kg single i.v.): 685 10^9/L
Pltmax, range in brackets (platelet counts; 3.0 μg/kg single i.v.): (188-979) 10^9/L
Pltmax, second value after the slash (footnote not given) (platelet counts; 3.0 μg/kg single i.v.): 750 10^9/L
Pltmax/Plt0, first value (mean) (platelet counts; 3.0 μg/kg single i.v.): 3.21
Pltmax/Plt0, range in brackets (platelet counts; 3.0 μg/kg single i.v.): (1.25-4.52)
Pltmax/Plt0, second value after the slash (footnote not given) (platelet counts; 3.0 μg/kg single i.v.): 3.50
n (>1.5×), subjects with platelet increase (platelet counts; 3.0 μg/kg single i.v.): 5
n (>2×), subjects with platelet increase (platelet counts; 3.0 μg/kg single i.v.): 5
n (>3×), subjects with platelet increase (platelet counts; 3.0 μg/kg single i.v.): 4
n (>4×), subjects with platelet increase (platelet counts; 3.0 μg/kg single i.v.): 1
activity (relative luminescent units), compared between compounds (human TPO receptor): similar

Reference: US7723295B2, “Peptides and compounds that bind to a receptor” (Ortho-McNeil Pharmaceutical, Inc., priority 2003, dated 2010)
